Reference: EP2272817A1, “PAI-1 INHIBITOR” (Institute of Medicinal Molecular Design, Inc., priority 2008, dated 2009)

Each compound was assayed against T1, recombinant human PAI-1 (Homo sapiens, UniProt P05121) (assay: biochemical). Settings: read-out: Inhibition Rate of PAI Activity (%).
T1 sequence (P05121 24-402): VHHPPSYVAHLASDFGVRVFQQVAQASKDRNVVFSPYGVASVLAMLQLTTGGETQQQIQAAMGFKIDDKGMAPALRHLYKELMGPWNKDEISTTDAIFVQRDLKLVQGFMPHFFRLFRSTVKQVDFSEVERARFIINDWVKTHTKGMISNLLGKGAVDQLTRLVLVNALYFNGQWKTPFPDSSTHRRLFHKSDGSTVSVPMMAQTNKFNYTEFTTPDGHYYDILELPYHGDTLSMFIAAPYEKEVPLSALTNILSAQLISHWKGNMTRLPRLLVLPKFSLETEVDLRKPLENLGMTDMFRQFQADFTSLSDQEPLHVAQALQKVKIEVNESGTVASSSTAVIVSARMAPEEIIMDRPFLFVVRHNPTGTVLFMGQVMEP
Experimental: To this solution, 6 µl of 80 nM recombinant human PAI-1 (Molecular Innovations, Inc.) solution prepared with Tris buffer was added, and the plate was incubated for 5 minutes at room temperature. Furthermore, 30 µl of 800 IU/ml two-chain tPA (Activity Standard; American diagnostica, inc.) prepared with Tris buffer was added, and the mixed solution was incubated for 15 minutes at room temperature. Then, 30 µl of 400 µM fluorogenic substrate (Pyr-Gly-Arg-MCA; Peptide Institute, Inc.) for tPA prepared with Tris buffer was added and reacted for 30 minutes at room temperature.
50 mM Tris, 150 mM NaCl, 10 µg/ml BSA, 0.01 % Tween80 (SIGMA-ALDRICH Corporation)

Row | inhibition at 5 µM [%] | inhibition at 10 µM [%] | inhibition at 25 µM [%] | SMILES
1 | 23 | 47 | 94 | O=C(O)/C=C/c1cc(-c2ccc(OC(F)(F)F)cc2)ccc1Oc1ccc(OC(F)(F)F)cc1 [Compound 15]
2 | 22 | 53 | 97 | O=C(O)CCc1cc(-c2ccc(OC(F)(F)F)cc2)ccc1OCc1cccc(C(F)(F)F)c1 [Compound 58]

Same assay, conditions: read-out: Inhibition Rate of PAI-1 Activity (%)

Row | inhibition at 5 µM [%] | inhibition at 10 µM [%] | inhibition at 25 µM [%] | SMILES
3 | 28 | 77 | 96 | CC(C)(C)c1ccc(COc2ccc(Oc3ccc(OC(F)(F)F)cc3)cc2/C=C/C(=O)O)cc1 [Compound 95]
4 | 13 | 53 | 96 | CC(C)c1ccc(Oc2ccc(/C=C\C(=O)O)c(Oc3ccc(C(C)C)cc3)c2)cc1 [Compound 74]
5 | 61 | 86 | 95 | CCCOc1ccc(-c2ccc(OC(F)(F)F)cc2)cc1N(CCCCc1ccccc1)C(=O)C(=O)O [Compound 236]
6 | 40 | 79 | 96 | CCCCc1ccc(-c2ccc(N(Cc3ccc(C(C)(C)C)cc3)C(=O)C(=O)O)cc2)cc1 [Compound 164]
7 | 24 | 50 | 96 | CC(C)(C)c1ccc(COc2ccc(-c3ccc(OC(F)(F)F)cc3)cc2OCCCC(=O)O)cc1 [Compound 109]
8 | 16 | 43 |  | COc1ccc(-c2ccc(N(Cc3ccc(C(C)(C)C)cc3)C(=O)C(=O)O)cc2)cc1 [Compound 126]
9 | 42 | 64 | 83 | CC(C)(Nc1cc(-c2ccc(OC(F)(F)F)cc2)ccc1OCc1ccc(C(C)(C)C)cc1)C(=O)O [Compound 420]
10 | 63 | 95 | 90 | CC(C)(C)c1ccc(CN(C(=O)C(=O)O)c2c(Cl)cc(-c3ccc(OC(F)(F)F)cc3)cc2Cl)cc1 [Compound 173]
11 | 28 | 62 | 95 | Cc1cc(-c2ccc(OC(F)(F)F)cc2)cc(CCC(=O)O)c1OCc1ccc(C(C)(C)C)cc1 [Compound 84]
12 | 75 | 91 | 91 | CC(C)(C)c1ccc(-c2ccc(Oc3ccc(-c4ccc(OC(F)(F)F)cc4)cc3/C=C/C(=O)O)c(CCC(=O)O)c2)cc1 [Compound 540]
13 |  | 10 | 34 | COc1ccc(CN(C(=O)C(=O)O)c2ccc(-c3ccc(OC(F)(F)F)cc3)cc2)cc1 [Compound 131]
14 | 50 | 80 | 98 | CC(C)(C)c1ccc(-c2ccc(N(Cc3ccc(C(F)(F)F)cc3)C(=O)C(=O)O)cc2)cc1 [Compound 205]
15 | 42 | 77 | 97 | CC(C)(C)c1ccc(CN(C(=O)C(=O)O)c2ccc(Nc3ccc(OC(F)(F)F)cc3)cc2)cc1 [Compound 626]
16 | 44 | 79 | 98 | CN(c1ccc(OC(F)(F)F)cc1)c1ccc(OCc2ccc(C(C)(C)C)cc2)c(CCC(=O)O)c1 [Compound 417]
17 | 30 | 67 | 96 | CC(C)(C)c1ccc(COc2c(Cl)cc(-c3ccc(OC(F)(F)F)cc3)cc2/C=C/C(=O)O)cc1 [Compound 91]

Each compound was assayed against T1, recombinant human PAI-1 (assay: Test Example 2: Human PAI-1 Inhibitory Activity (pH 7.4 HEPES buffer, 10 minutes incubation with two-chain tPA)). Settings: read-out: Inhibition Rate of PAI-1 Activity (%).
Assay type: biochemical
Parameters: purchased Molecular Innovations, Inc
Experimental: 0.1 M HEPES, 0.1 M NaCl. 1 mM EDTA. 0.1 % Polyethylene glycol 8,000 (Hampton Research Corporation),
2 mM Dimethyldecylphoshine oxide [Apo-10] (Fluka Corporation)

Row | inhibition at 0.1 µM [%] | inhibition at 0.3 µM [%] | inhibition at 1 µM [%] | inhibition at 3 µM [%] | inhibition at 10 µM [%] | inhibition at 25 µM [%] | SMILES
18 | 0 | 33 | > 99 | > 99 |  |  | CCCCc1ccc(-c2ccc(Oc3ccc(C(C)(C)C)cc3)c(OCC(=O)O)c2)cc1 [Compound 505]
19 | 6 | 11 | 27 | > 99 |  |  | O=C(O)C(=O)N(Cc1ccc2ccccc2c1)c1ccc(-c2ccc(OC(F)(F)F)cc2)cc1 [Compound 661]
20 | 6 | 13 | 91 | > 99 |  |  | CC(C)c1ccccc1Oc1cc(-c2ccc(OC(F)(F)F)cc2)ccc1/C=C/C(=O)O [Compound 490]
21 | 6 | 55 | 97 | 94 |  |  | CCCCCOc1ccc(-c2ccc(OC(F)(F)F)cc2)cc1N(CCCCc1cc(C)ccc1C)C(=O)C(=O)O [Compound 670]
22 | 27 | 43 | 95 | 98 |  |  | CCCCCOc1ccc(-c2ccc(OC(F)(F)F)cc2)cc1CN(CC(=O)O)c1ccc(C(C)(C)C)cc1 [Compound 647]
23 | 1 | 3 | 52 | 93 |  |  | CCCCC(Oc1cc(-c2ccc(OC(F)(F)F)cc2)ccc1OCc1ccc(C(C)(C)C)cc1)C(=O)O (centres unmarked) [Compound 313]
24 | 14 | 72 | > 99 | > 99 |  |  | CC(C)c1ccc(-c2ccc(/C=C/C(=O)O)c(Sc3ccc(C(C)(C)C)cc3)c2)cc1 [Compound 520]
25 | 17 | 7 | 69 | > 99 |  |  | CC(C)c1ccccc1Oc1cc(-c2ccc(OC(F)(F)F)cc2)ccc1OCC(=O)O [Compound 513]
26 | 8 | 64 | 98 | > 99 |  |  | CC(C)(C)c1ccc(Oc2cc(-c3ccc(C(C)(C)C)cc3)ccc2/C=C/C(=O)O)cc1 [Compound 495]
27 |  |  | 41 | 98 | > 99 | > 99 | CC(C)(C)c1ccc(COc2ccc(NS(=O)(=O)c3ccc(OC(F)(F)F)cc3)cc2CCC(=O)O)cc1 [Compound 415]
28 | 6 | 12 | 91 | 87 |  |  | CC(C)[C@@H]1CC[C@@H](C)C[C@H]1Oc1ccc(-c2ccc(OC(F)(F)F)cc2)cc1N(CCCCc1ccccc1)C(=O)C(=O)O [Compound 639]
29 | 18 | 36 | 92 | 94 |  |  | CCCCN(CC(=O)O)c1cc(-c2ccc(OC(F)(F)F)cc2)ccc1Oc1ccc(C(C)(C)C)cc1 [Compound 428]
30 | 10 | 8 | 28 | 84 |  |  | Cc1cccc(-c2ccc(Oc3ccc(C(C)(C)C)cc3)c(OCC(=O)O)c2)c1 [Compound 316]
31 |  |  | 5 | 13 | 45 | 81 | O=C(O)C(=O)N(Cc1ccc(-c2ccc(OC(F)(F)F)cc2)cc1)c1ccccc1 [Compound 611]
32 | 0 | 0 | 11 | 96 |  |  | Cc1ccc(-c2ccc(OCC(=O)O)c(Oc3ccc(C(C)(C)C)cc3)c2)cc1 [Compound 444]

Row | SMILES | inhibition at 0.1 µM [%] | inhibition at 0.3 µM [%] | inhibition at 1 µM [%] | inhibition at 3 µM [%] | inhibition at 10 µM [%] | inhibition at 25 µM [%]
33 | O=C(O)C(=O)N(CCCCc1ccccc1)c1cc(-c2ccc(OC(F)(F)F)cc2)ccc1N1CCCCC1 [Compound 370] | 0 | 0 | 66 | 97 |  | 
